The values below come from US20020119939A1, “Stable aqueous deoxyfructosazine solution” (priority 2000, published 2002).

This data set is described as follows: study of the stability of aqueous deoxyfructosazine solutions (HPLC). The class given is physicochemical. The settings on record: 1 mg/ml solution. The method, then:
The study of the stability of aqueous deoxyfructosazine solutions was carried out according to the following protocol:
A deoxyfructosazine solution (1 mg/ml) is prepared using an aqueous 0.05M phosphoric acid solution. Samples of the solution are adjusted to pH 2, 3, 4, 5, 6, 7, 8 and 9 by addition of sodium hydroxide. The solutions thus obtained are stored in glass bottles protected from the light, at 4° C. (control solution), 25° C., 45° C. and 60° C. After 2, 7 and 15 days, the samples are diluted 5-fold with a 20 mM, pH 7 phosphate buffer and the stability is examined by high pressure liquid chromatography (HPLC).

Take `OC[C@@H](O)[C@@H](O)[C@H](O)c1cnc(C[C@H](O)[C@H](O)CO)cn1` [deoxyfructosazine, 2-((1R, 2S, 3R)1,2,3,4-tetrahydroxybutyl)-5-((2′S, 3′R)2′, 3′, 4′-trihydroxy-butylpyrazine)]: the “% of decomposition product calculated relative to the total area of the peaks, Product A” value is recorded as 1.52% (pH 2, stored 15 days at 45° C.); 6.94% (pH 2, stored 15 days at 60° C.); 0.16% (pH 3, stored 15 days at 45° C.); 0.87% (pH 3, stored 15 days at 60° C.); 0.07% (pH 4, stored 15 days at 60° C.). Also, the “% of decomposition product calculated relative to the total area of the peaks, Product B” value is on record as 0.02% (pH 2, stored 15 days at 60° C.); 0.03% (pH 3, stored 15 days at 60° C.); 0.05% (pH 4, stored 15 days at 60° C.); 0.03% (pH 5, stored 15 days at 45° C.); 0.24% (pH 5, stored 15 days at 60° C.); 0.21% (pH 6, stored 15 days at 45° C.). Further, the “% of decomposition product calculated relative to the total area of the peaks, Product B” value runs as follows: (pH 6, stored 15 days at 60° C.) 0.71%; (pH 7, stored 15 days at 45° C.) 0.69%; (pH 7, stored 15 days at 60° C.) 13.9%; (pH 8, stored 15 days at 45° C.) 0.95%; (pH 8, stored 15 days at 60° C.) 37.9%; (pH 9, stored 15 days at 45° C.) 1.92%. Besides, the “% of decomposition product calculated relative to the total area of the peaks, Product B” value (pH 9, stored 15 days at 60° C.) was 37.7%.
